Assay results reported in patent US20250223559A1, “AXIOLOID: A STEM CELL-BASED MODEL OF HUMAN AXIAL DEVELOPMENT” (KYOTO UNIVERSITY, priority 2022, published 2025).

Tested on: human Axioloids
Assay: Immunofluorescence and HCR in situ expression patterns in Axioloids
Format: cell-based
Method: Human Axioloid samples were washed twice with 0.1% BSA (Nacalai) in PBS (Takara), fixed with 4% paraformaldehyde (PFA) for 20 minutes at room temperature and then washed again twice with 0.1% BSA in PBS. Samples were permeabilized in 0.2% Triton X-100 (Nacalai) in PBS for 15 minutes at room temperature and blocked in 5% BSA in PBS for 1 hour at room temperature. Axioloid samples were stained with primary antibodies diluted in 0.5% BSA in PBST (1% Tween-20 (Nacalai) in PBS) for overnight (12-16 hours) at 4° C. Primary antibodies used in this study were: goat anti-TBXT (TBXT) (1:500, R&D Systems), mouse anti-Fibronectin (1:10, DSHB), mouse anti-Laminin (γ1) (1:10, DSHB), rabbit anti-MEOX1 (1:500, ATLAS), mouse anti-N-Cadherin (1:200, BD Biosciences), mouse anti-PKCζ (1:100, Santa Cruz), rabbit anti-SOX2 (1:400, Cell Signaling), and goat anti-TBX6 (1:500, R&D Systems). Samples were then washed twice with PBST and stained with secondary antibodies and Alexa Fluor 647 conjugated Phalloidin (Invitrogen) diluted in 0.5% BSA in PBST for 3 hours at room temperature, washed twice with PBST and counterstained with DAPI for 5 min at room temperature. […]

## CC1=C(/C=C/C(C)=C/C=C/C(C)=C/C=O)C(C)(C)CCC1 [RAL, all trans-Retinal]
MG+RAL
  expression gradients of FGF8 and WNT3a (HCR): still showed clear expression gradients of FGF8 and WNT3a
MG-embedded, RA or RAL treated
  protein and gene expression patterns (TBXT, MEOX1, UNCX, TBX18): largely unchanged or even improved
